Measured values from the NIST ThermoML archive (doi:10.1016/j.jct.2017.07.040).
± gives the expanded uncertainty stated by the source.

Assay: mn = molality of the nth substance listed, in mol/kg
Conditions: 101 kPa, Liquid; for viscosity: Capillary tube (Ostwald / Ubbelohde) method; for speed of sound: Frequency=6 MHz, Linear variable-path acoustic interferometer; for mass density: Vibrating tube method

CC1(C)S[C@@H]2[C@H](NC(=O)[C@H](N)c3ccccc3)C(=O)N2[C@H]1C(=O)[O-].[Na+] [Ampicillin Sodium] + O
Conditions	mass density [kg/m3]	speed of sound [m/s]	viscosity [mPa·s]
293.15 K, m1 = 0.035	1002.84 ± 1.3	1487.5 ± 2.5	1.034 ± 0.021
293.15 K, m1 = 0.055	1005.4 ± 1.3	1492 ± 2.5	1.072 ± 0.021
293.15 K, m1 = 0.075	1007.9 ± 1.1	1496.1 ± 2.5	1.109 ± 0.021
293.15 K, m1 = 0.095	1010.54 ± 1.3	1501.3 ± 2.5	1.113 ± 0.021
298.15 K, m1 = 0.035	1001.64 ± 1.3	1501.6 ± 2.5	0.9268 ± 0.021
298.15 K, m1 = 0.055	1004.16 ± 1.3	1505.6 ± 2.5	0.9663 ± 0.021
298.15 K, m1 = 0.075	1006.66 ± 1.3	1509.6 ± 2.5	1.008 ± 0.021
298.15 K, m1 = 0.095	1009.25 ± 1.3	1515 ± 2.5	1.05 ± 0.021
303.15 K, m1 = 0.035	1000.19 ± 1.3	1514 ± 2.5	0.8381 ± 0.021
303.15 K, m1 = 0.055	1002.69 ± 1.2	1518.1 ± 2.5	0.8814 ± 0.021
303.15 K, m1 = 0.075	1005.1 ± 1.3	1522.1 ± 2.5	0.9262 ± 0.021
303.15 K, m1 = 0.095	1007.7 ± 1.3	1526 ± 2.5	0.9736 ± 0.021
308.15 K, m1 = 0.035	998.531 ± 1.3	1524.7 ± 2.5	0.7612 ± 0.021
308.15 K, m1 = 0.055	1001.01 ± 1.2	1529 ± 2.5	0.8077 ± 0.021
308.15 K, m1 = 0.075	1003.04 ± 1.2	1533 ± 2.5	0.8543 ± 0.021
308.15 K, m1 = 0.095	1005.84 ± 1.3	1535.7 ± 2.5	0.9016 ± 0.021
313.15 K, m1 = 0.035	996.661 ± 1.3	1533.8 ± 2.5	0.6978 ± 0.02
313.15 K, m1 = 0.055	999.128 ± 1.2	1538 ± 2.5	0.748 ± 0.021
313.15 K, m1 = 0.075	1000.49 ± 1.1	1542.5 ± 2.5	0.7967 ± 0.021
313.15 K, m1 = 0.095	1003.74 ± 1.4	1546.1 ± 2.5	0.8021 ± 0.021

N[C@@H](Cc1c[nH]cn1)C(=O)O [L-histidine] + O
Conditions	mass density [kg/m3]	speed of sound [m/s]	viscosity [mPa·s]
293.15 K, m1 = 0.01	998.806 ± 1.1	1483.9 ± 2.5	1.009 ± 0.021
293.15 K, m1 = 0.03	999.974 ± 1.1	1485.7 ± 2.5	1.016 ± 0.021
293.15 K, m1 = 0.05	1001.14 ± 1.1	1487.5 ± 2.5	1.022 ± 0.021
293.15 K, m1 = 0.07	1002.32 ± 1.1	1489.3 ± 2.5	1.028 ± 0.021
293.15 K, m1 = 0.09	1003.5 ± 1.1	1491.1 ± 2.5	1.034 ± 0.021
293.15 K, m1 = 0.11	1004.68 ± 1.1	1492.8 ± 2.5	1.04 ± 0.021
298.15 K, m1 = 0.01	997.635 ± 1.1	1498.2 ± 2.5	0.8956 ± 0.021
298.15 K, m1 = 0.03	998.775 ± 1.1	1500 ± 2.5	0.9014 ± 0.021
298.15 K, m1 = 0.05	999.914 ± 1.1	1501.7 ± 2.5	0.9061 ± 0.021
298.15 K, m1 = 0.07	1001.05 ± 1.1	1503.2 ± 2.5	0.9107 ± 0.021
298.15 K, m1 = 0.09	1002.19 ± 1.1	1505 ± 2.5	0.9156 ± 0.021
298.15 K, m1 = 0.11	1003.33 ± 1.1	1506.9 ± 2.5	0.9197 ± 0.021
303.15 K, m1 = 0.01	996.232 ± 1.1	1510.3 ± 2.5	0.8015 ± 0.021
303.15 K, m1 = 0.03	997.346 ± 1.1	1512 ± 2.5	0.8061 ± 0.021
303.15 K, m1 = 0.05	998.458 ± 1.1	1513.7 ± 2.5	0.8103 ± 0.021
303.15 K, m1 = 0.07	999.567 ± 1.1	1515.4 ± 2.5	0.8143 ± 0.021
303.15 K, m1 = 0.09	1000.68 ± 1.1	1517 ± 2.5	0.8178 ± 0.021
303.15 K, m1 = 0.11	1001.79 ± 1	1518.7 ± 2.5	0.8217 ± 0.021
308.15 K, m1 = 0.01	994.608 ± 1.1	1521 ± 2.5	0.7223 ± 0.021
308.15 K, m1 = 0.03	995.696 ± 1.1	1522.7 ± 2.5	0.7259 ± 0.021
308.15 K, m1 = 0.05	996.785 ± 1.1	1524.3 ± 2.5	0.7292 ± 0.021
308.15 K, m1 = 0.07	997.874 ± 1.1	1525.9 ± 2.5	0.7323 ± 0.021
308.15 K, m1 = 0.09	998.961 ± 1.1	1527.5 ± 2.5	0.7356 ± 0.021
308.15 K, m1 = 0.11	1000.05 ± 1.1	1529.1 ± 2.5	0.7389 ± 0.021
313.15 K, m1 = 0.01	992.782 ± 1.1	1530.1 ± 2.5	0.6553 ± 0.02
313.15 K, m1 = 0.03	993.848 ± 1.1	1531.7 ± 2.5	0.6584 ± 0.02
313.15 K, m1 = 0.05	994.918 ± 1.1	1533.2 ± 2.5	0.6613 ± 0.02
313.15 K, m1 = 0.07	995.988 ± 1.1	1534.8 ± 2.5	0.6638 ± 0.02
313.15 K, m1 = 0.09	997.06 ± 1.1	1536.3 ± 2.5	0.6669 ± 0.02
313.15 K, m1 = 0.11	998.13 ± 1.1	1537.8 ± 2.5	0.6692 ± 0.02

O [water] + CC1(C)S[C@@H]2[C@H](NC(=O)[C@H](N)c3ccccc3)C(=O)N2[C@H]1C(=O)[O-].[Na+]
m2 = 0
Conditions	mass density [kg/m3]	speed of sound [m/s]	viscosity [mPa·s]
293.15 K	–	–	1.002 ± 0.021
298.15 K	–	–	0.8903 ± 0.021
303.15 K	–	–	0.7973 ± 0.021
308.15 K	994.063 ± 1.3	–	0.719 ± 0.021
313.15 K	–	1529.3 ± 2.5	0.6526 ± 0.02

O [water] + N[C@@H](Cc1c[nH]cn1)C(=O)O
m2 = 0
Conditions	mass density [kg/m3]	speed of sound [m/s]	viscosity [mPa·s]
293.15 K	–	–	1.002 ± 0.021
298.15 K	–	–	0.8903 ± 0.021
303.15 K	–	–	0.7973 ± 0.021
308.15 K	994.063 ± 1.1	–	0.719 ± 0.021
313.15 K	–	1529.3 ± 2.5	0.6526 ± 0.021
